Reference: ChEMBL document CHEMBL5096208, “Installation of Pargyline, a LSD1 Inhibitor, in the HDAC Inhibitory Template Culminated in the Identification of a Tractable Antiprostate Cancer Agent” (J Med Chem, 2021)
Activity calls are given as the source filed them. The calls are words filed in the database; no cut-off is given here.

Experiments:
[1] = Cmax in Sprague-Dawley rat at 25 mg/kg, po administered once via gavage measured upto 24 hrs post dose by UPLC-MS/MS analysis; assay type: ADME, organism-based; design: dose 25 mg/kg, time < 24 hrs, route po; conditions: in vivo
[2] = Metabolic stability in human hepatocyte assessed as parent compound remaining at 10 uM incubated for 120 mins by LC-MS/MS analysis; assay type: ADME, cell-based; conditions: hepatocytes, read-out: Stability
[3] = Metabolic stability in Beagle dog hepatocyte assessed as parent compound remaining at 10 uM incubated for 60 mins by LC-MS/MS analysis; assay type: ADME, cell-based, Canis lupus familiaris; conditions: hepatocytes, read-out: Stability
Histone deacetylase 9 = Histone deacetylase 9 (Homo sapiens, UniProt Q9UKV0); assay: Inhibition of human HDAC9 using Boc-Lys(trifluoroacetyl)-AMC as flurogenic substrate
[4] = Metabolic stability in human hepatocyte assessed as parent compound remaining at 10 uM incubated for 60 mins by LC-MS/MS analysis; assay type: ADME, cell-based; conditions: hepatocytes, read-out: Stability
PC-3 [5] = assay: Downregulation of LSD1 in human PC-3 cells at 1.25 to 10 uM incubated for 48 hrs by Western blot analysis; assay type: functional, cell-based; conditions: dose 1.25-10 µM
Histone deacetylase 4 = Histone deacetylase 4 (Homo sapiens, UniProt P56524); assay: Inhibition of human HDAC4 using Boc-Lys(trifluoroacetyl)-AMC as flurogenic substrate
[6] = Volume of distribution at steady state in Sprague-Dawley rat at 2 mg/kg, iv administered as single dose through tail vein measured upto 24 hrs post dose by UPLC-MS/MS analysis; assay type: ADME, organism-based; conditions: in vivo, read-out: Vdss
Homo sapiens [7] = species: Homo sapiens; assay: Selectivity ratio of IC50 for human HDAC2 to IC50 for human HDAC6
[8] = Metabolic stability in Sprague-Dawley rat hepatocyte assessed as half life at 10 uM by LC-MS/MS analysis; assay type: ADME, cell-based; conditions: hepatocytes
[9] = AUC (0 to infinity) in Sprague-Dawley rat at 2 mg/kg, iv administered as single dose through tail vein measured upto 24 hrs post dose by UPLC-MS/MS analysis; assay type: ADME, organism-based; design: dose 2 mg/kg, time < 24 hrs, route iv; conditions: in vivo
[10] = Metabolic stability in Beagle dog hepatocyte assessed as half life at 10 uM by LC-MS/MS analysis; assay type: ADME, cell-based, Canis lupus familiaris; conditions: hepatocytes
[11] = Metabolic stability in Beagle dog hepatocyte assessed as parent compound remaining at 10 uM incubated for 240 mins by LC-MS/MS analysis; assay type: ADME, cell-based, Canis lupus familiaris; conditions: hepatocytes, read-out: Stability
Homo sapiens [12] = species: Homo sapiens; assay: Selectivity ratio of IC50 for human HDAC4 to IC50 for human HDAC6
[13] = Tmax in Sprague-Dawley rat at 25 mg/kg, po formulated using SMEDDS administered once via gavage measured upto 24 hrs post dose by UPLC-MS/MS analysis; assay type: ADME, organism-based; conditions: in vivo
[14] = Metabolic stability in Beagle dog hepatocyte assessed as intrinsic clearance at 10 uM by LC-MS/MS analysis; assay type: ADME, cell-based, Canis lupus familiaris; conditions: hepatocytes, read-out: CLH
Histone deacetylase 5 = Histone deacetylase 5 (Homo sapiens, UniProt Q9UQL6); assay: Inhibition of human HDAC5 using Boc-Lys(trifluoroacetyl)-AMC as flurogenic substrate
[15] = Metabolic stability in Beagle dog hepatocyte assessed as parent compound remaining at 10 uM incubated for 30 mins by LC-MS/MS analysis; assay type: ADME, cell-based, Canis lupus familiaris; conditions: hepatocytes, read-out: Stability
[16] = AUC (0 to infinity) in Sprague-Dawley rat at 25 mg/kg, po formulated using SMEDDS administered once via gavage measured upto 24 hrs post dose by UPLC-MS/MS analysis; assay type: ADME, organism-based; design: dose 25 mg/kg, time < 24 hrs, route po; conditions: in vivo
[17] = C0 in Sprague-Dawley rat at 2 mg/kg, iv administered as single dose through tail vein measured upto 24 hrs post dose by UPLC-MS/MS analysis; assay type: ADME, organism-based; conditions: in vivo
Homo sapiens [18] = species: Homo sapiens; assay: Selectivity ratio of IC50 for human HDAC1 to IC50 for human HDAC6
[19] = target: T1, Amine oxidase [flavin-containing] B (Homo sapiens, UniProt P27338); assay: Inhibition of human full length recombinant MAO-B expressed in insect cells using kynuramine as substrate; assay type: cell-based
T1 sequence (P27338 whole entry): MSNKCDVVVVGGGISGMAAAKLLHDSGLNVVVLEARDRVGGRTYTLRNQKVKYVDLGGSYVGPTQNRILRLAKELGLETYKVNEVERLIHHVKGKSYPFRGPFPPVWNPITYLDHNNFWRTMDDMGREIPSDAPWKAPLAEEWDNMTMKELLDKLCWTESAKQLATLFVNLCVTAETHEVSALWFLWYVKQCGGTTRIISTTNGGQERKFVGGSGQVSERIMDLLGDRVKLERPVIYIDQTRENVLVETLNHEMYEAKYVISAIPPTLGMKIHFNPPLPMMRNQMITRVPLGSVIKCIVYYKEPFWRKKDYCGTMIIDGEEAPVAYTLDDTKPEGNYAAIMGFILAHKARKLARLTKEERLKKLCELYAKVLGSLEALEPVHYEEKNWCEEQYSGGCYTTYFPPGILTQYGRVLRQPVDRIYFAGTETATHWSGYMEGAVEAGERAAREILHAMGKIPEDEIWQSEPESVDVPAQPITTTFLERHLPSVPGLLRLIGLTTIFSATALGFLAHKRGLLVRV

Homo sapiens [20] = species: Homo sapiens; assay: Selectivity ratio of IC50 for human HDAC8 to IC50 for human HDAC6
PC-3 [21] = assay: Induction of cell death in LSD1 knockdown human PC-3 cells assessed as activation of procaspase-3 at 1.25 to 10 uM by Western blot analysis; assay type: functional, cell-based; conditions: dose 1.25-10 µM
[22] = Metabolic stability in human hepatocyte assessed as intrinsic clearance at 10 uM by LC-MS/MS analysis; assay type: ADME, cell-based; conditions: hepatocytes, read-out: CLH
DU-145 = assay: Upregulation of acetyl-histone H3 in human DU-145 cells at 0.625 to 5 uM by Western blot analysis; assay type: functional, cell-based; conditions: dose 0.625-5 µM
[23] = Metabolic stability in Sprague-Dawley rat hepatocyte assessed as parent compound remaining at 10 uM incubated for 30 mins by LC-MS/MS analysis; assay type: ADME, cell-based; conditions: hepatocytes, read-out: Stability
Histone deacetylase 2 = Histone deacetylase 2 (Homo sapiens, UniProt Q92769); assay: Inhibition of human HDAC2 (379 to 382 residues) using RHKKAc as flurogenic substrate
[24] = Metabolic stability in Beagle dog hepatocyte assessed as parent compound remaining at 10 uM by LC-MS/MS analysis; assay type: ADME, cell-based, Canis lupus familiaris; conditions: hepatocytes, read-out: Stability
HUVEC = assay: Cytotoxicity against HUVEC cells assessed as reduction in cell viability at upto 10 uM incubated for 48 hrs by MTT assay; assay type: toxicity, cell-based; conditions: human
PC-3 [25] = assay: Induction of apoptosis in human PC-3 cells at 1.25 to 10 uM incubated for 48 hrs by Western blot analysis; assay type: functional, cell-based; conditions: dose 1.25-10 µM
[26] = Tmax in Sprague-Dawley rat at 25 mg/kg, po administered once via gavage measured upto 24 hrs post dose by UPLC-MS/MS analysis; assay type: ADME, organism-based; conditions: in vivo
[27] = AUC (0 to 24 hrs) in Sprague-Dawley rat at 25 mg/kg, po administered once via gavage measured upto 24 hrs post dose by UPLC-MS/MS analysis; assay type: ADME, organism-based; design: dose 25 mg/kg, time < 24 hrs, route po; conditions: in vivo
[28] = Half life in Sprague-Dawley rat at 2 mg/kg, iv administered as single dose through tail vein measured upto 24 hrs post dose by UPLC-MS/MS analysis; assay type: ADME, organism-based; conditions: in vivo
[29] = Metabolic stability in Sprague-Dawley rat hepatocyte assessed as parent compound remaining at 10 uM by LC-MS/MS analysis; assay type: ADME, cell-based; conditions: hepatocytes, read-out: Stability
[30] = Metabolic stability in Beagle dog hepatocyte assessed as parent compound remaining at 10 uM incubated for 120 mins by LC-MS/MS analysis; assay type: ADME, cell-based, Canis lupus familiaris; conditions: hepatocytes, read-out: Stability

Histone deacetylase 9, sequence (Q9UKV0 whole entry): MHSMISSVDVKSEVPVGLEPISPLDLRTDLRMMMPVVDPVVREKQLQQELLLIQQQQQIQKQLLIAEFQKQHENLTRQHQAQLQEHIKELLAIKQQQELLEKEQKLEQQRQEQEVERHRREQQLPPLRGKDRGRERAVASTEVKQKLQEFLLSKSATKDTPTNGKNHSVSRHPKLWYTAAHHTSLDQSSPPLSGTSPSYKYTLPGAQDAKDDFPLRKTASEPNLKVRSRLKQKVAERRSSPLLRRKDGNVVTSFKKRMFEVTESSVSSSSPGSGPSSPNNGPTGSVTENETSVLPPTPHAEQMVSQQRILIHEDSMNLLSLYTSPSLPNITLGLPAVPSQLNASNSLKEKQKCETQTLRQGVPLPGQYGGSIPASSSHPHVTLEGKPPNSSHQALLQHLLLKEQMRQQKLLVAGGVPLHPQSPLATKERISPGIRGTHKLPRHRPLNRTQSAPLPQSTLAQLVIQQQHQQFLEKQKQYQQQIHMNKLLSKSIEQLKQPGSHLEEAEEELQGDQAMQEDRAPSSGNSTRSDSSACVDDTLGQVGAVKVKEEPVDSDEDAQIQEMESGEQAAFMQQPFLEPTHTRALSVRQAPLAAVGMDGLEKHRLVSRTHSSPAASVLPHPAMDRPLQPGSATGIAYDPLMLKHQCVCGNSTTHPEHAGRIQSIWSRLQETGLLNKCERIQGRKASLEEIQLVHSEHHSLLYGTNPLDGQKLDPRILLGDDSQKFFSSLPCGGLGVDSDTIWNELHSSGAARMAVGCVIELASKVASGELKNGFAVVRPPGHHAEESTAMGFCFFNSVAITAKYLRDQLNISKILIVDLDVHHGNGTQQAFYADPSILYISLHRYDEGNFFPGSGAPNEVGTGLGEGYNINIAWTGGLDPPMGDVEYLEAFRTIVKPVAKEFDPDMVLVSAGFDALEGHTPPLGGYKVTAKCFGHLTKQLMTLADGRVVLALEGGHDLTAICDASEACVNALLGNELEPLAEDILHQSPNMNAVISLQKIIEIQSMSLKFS
Histone deacetylase 4, sequence (P56524 whole entry): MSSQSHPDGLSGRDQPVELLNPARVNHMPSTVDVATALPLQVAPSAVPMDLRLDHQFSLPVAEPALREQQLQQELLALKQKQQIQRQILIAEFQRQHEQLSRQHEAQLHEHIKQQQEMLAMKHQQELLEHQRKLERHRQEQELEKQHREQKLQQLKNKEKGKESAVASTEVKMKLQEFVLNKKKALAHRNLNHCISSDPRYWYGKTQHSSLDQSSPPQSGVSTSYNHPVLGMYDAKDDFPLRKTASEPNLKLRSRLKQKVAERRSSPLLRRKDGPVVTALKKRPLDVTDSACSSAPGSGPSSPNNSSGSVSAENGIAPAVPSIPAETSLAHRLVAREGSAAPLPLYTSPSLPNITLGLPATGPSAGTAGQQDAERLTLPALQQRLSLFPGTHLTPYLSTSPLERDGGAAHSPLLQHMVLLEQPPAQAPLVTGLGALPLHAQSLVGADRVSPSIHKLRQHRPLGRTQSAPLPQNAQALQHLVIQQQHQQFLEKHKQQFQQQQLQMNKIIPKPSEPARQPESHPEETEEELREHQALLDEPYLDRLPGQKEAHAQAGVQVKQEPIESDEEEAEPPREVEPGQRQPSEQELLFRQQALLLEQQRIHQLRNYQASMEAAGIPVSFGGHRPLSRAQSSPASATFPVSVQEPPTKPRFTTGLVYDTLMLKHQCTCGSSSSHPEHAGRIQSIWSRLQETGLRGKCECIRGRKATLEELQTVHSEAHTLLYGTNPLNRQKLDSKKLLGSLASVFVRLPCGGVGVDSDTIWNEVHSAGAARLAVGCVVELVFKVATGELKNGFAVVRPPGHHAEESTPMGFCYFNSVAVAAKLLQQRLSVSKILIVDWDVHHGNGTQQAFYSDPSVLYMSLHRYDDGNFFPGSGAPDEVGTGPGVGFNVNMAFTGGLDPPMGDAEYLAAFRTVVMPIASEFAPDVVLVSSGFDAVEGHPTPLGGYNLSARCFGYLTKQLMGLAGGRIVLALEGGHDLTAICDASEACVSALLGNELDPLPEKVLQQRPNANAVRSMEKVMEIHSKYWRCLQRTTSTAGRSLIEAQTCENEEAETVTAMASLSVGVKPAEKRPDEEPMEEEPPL
Histone deacetylase 2, sequence (Q92769 whole entry, the tested form may be a part): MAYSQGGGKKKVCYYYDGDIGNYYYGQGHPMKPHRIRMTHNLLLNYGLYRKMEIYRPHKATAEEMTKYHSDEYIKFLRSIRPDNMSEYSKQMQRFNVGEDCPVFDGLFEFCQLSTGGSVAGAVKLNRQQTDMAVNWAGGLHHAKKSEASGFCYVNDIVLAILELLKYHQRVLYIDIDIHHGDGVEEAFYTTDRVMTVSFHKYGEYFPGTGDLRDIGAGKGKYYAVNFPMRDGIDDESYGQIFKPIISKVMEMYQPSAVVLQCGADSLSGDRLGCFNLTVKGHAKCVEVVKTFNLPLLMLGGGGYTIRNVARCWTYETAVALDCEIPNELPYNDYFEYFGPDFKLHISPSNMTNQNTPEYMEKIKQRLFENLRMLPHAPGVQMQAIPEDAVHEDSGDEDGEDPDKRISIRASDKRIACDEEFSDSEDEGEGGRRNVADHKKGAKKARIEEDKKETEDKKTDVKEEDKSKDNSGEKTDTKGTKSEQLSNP
Histone deacetylase 5, sequence (Q9UQL6 whole entry): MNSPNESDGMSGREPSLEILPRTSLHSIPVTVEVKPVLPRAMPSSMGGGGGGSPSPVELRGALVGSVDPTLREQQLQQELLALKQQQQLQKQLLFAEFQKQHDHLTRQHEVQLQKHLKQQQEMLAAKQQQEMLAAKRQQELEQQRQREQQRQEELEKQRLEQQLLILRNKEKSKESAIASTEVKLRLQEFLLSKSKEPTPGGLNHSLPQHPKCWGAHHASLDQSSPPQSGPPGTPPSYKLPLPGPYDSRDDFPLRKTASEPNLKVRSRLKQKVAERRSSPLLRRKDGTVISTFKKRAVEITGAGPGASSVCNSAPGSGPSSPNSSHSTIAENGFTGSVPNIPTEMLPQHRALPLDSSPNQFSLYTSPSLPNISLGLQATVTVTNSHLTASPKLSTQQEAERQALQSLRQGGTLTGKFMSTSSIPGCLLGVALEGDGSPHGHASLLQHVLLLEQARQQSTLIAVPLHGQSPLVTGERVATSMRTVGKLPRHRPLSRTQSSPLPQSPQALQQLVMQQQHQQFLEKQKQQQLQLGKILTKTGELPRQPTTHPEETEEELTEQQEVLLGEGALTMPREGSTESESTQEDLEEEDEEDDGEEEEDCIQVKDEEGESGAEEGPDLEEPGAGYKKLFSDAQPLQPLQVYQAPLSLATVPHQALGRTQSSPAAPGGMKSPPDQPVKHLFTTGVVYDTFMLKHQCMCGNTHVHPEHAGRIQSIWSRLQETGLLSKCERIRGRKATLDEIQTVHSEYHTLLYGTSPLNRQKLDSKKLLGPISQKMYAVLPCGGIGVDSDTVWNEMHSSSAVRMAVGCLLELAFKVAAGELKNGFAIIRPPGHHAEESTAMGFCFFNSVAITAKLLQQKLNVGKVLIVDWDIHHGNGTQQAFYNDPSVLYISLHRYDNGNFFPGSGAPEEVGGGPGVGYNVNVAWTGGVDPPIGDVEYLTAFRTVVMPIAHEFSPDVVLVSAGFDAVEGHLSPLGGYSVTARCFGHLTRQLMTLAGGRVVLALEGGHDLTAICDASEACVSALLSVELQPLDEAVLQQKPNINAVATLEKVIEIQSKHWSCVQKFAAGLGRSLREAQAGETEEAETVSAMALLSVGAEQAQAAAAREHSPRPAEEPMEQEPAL

`C#CCN(C)Cc1cccc(NC(=O)CCCCCCC(=O)NO)c1` showed a Cmax [1] of 74.1 ng/mL, a remaining at 2 h, 10 µM [2] of 95.5% and a remaining at 1 h, 10 µM [3] of 81.2%. The IC50 (Histone deacetylase 9) was greater than 10 µM, the remaining at 1 h, 10 µM [4] was 102% and the Activity (PC-3 [5]) was “Active”. It also gave an IC50 (Histone deacetylase 4) greater than 10 µM, a Vd [6] of 247 L/kg and a Ratio IC50 (Homo sapiens [7]) of 77. It also gave a half-life at 10 µM [8] of 1.56 h, an AUC(0-inf) [9] of 76.8 ng·h/mL and a half-life at 10 µM [10] of 3.61 h. It also gave a remaining at 4 h, 10 µM [11] of 46.6%, a Ratio IC50 (Homo sapiens [12]) greater than 500 and a Tmax [13] of 0.9 h. For the same compound, the CLint scaled at 10 µM [14] was 21.6 mL/min/kg, the IC50 (Histone deacetylase 5) was 13.4 µM and the remaining at 0.5 h, 10 µM [15] was 91.6%. The AUC(0-inf) [16] was 596 ng·h/mL, the C0 at 24 h [17] was 38.1 ng/mL and the Ratio IC50 (Homo sapiens [18]) was 33.6. For the same compound, the IC50 [19] was 67 µM, the Ratio IC50 (Homo sapiens [20]) was 10.5 and the Activity (PC-3 [21]) was “Active”. The CLint scaled at 10 µM [22] was 9.78 mL/min/kg, the Activity (DU-145) was “Active” and the remaining at 0.5 h, 10 µM [23] was 72.2%. The IC50 (Histone deacetylase 2) was 1.54 µM, the remaining at 10 µM [24] was 100% and the Activity (HUVEC) was “Non-Toxic”. For the same compound, the Activity (PC-3 [25]) was “Active”, the Tmax [26] was 0.5 h and the AUC(0-t) at 24 h [27] was 108 ng·h/mL. The half-life [28] was 8.1 h, the remaining at 10 µM [29] was 100% and the remaining at 2 h, 10 µM [30] was 66.7%.
